# Columns and labels:
# Assay type in all cases: biochemical
# [1] = biological target: T1, 2-hydroxyisobutyryl-CoA mutase from Aquincola tertiaricarbonis (Aquincola tertiaricarbonis, UniProt I3VE74+I3VE77); experiment: coupled PhaJ/Etr1p assay, NADPH at […] nm; details: 12.5 µM coenzyme B12, 50 mM NaPO4 pH 7, 30 °C
# T1 construct: gene hcmA
# T1 sequence (I3VE77 1-562): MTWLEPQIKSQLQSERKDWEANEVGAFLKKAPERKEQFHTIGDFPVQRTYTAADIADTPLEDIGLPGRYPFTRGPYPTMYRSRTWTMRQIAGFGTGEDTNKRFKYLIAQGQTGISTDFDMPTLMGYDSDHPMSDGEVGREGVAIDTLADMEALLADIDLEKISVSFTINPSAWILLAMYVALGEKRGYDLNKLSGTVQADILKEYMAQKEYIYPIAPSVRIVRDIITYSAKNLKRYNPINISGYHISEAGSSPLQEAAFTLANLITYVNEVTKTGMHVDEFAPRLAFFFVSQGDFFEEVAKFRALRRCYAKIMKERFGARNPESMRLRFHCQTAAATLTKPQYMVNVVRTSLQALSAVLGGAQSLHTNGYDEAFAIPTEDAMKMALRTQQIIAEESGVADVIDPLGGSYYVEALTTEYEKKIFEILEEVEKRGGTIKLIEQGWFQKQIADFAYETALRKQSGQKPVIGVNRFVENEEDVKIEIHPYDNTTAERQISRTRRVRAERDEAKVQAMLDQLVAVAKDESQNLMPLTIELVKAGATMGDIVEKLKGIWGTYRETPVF
# T1 sequence (I3VE74 1-136): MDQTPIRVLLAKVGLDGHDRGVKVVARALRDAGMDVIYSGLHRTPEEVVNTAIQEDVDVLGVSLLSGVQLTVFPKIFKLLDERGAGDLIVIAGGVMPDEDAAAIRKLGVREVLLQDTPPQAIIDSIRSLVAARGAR
# AbfT = biological target: T2, AbfT (Clostridium aminobutyricum, UniProt Q9RM86); experiment: LC-MS CoA-transfer assay; details: 100 mM HEPES pH 7.5, 10 mM MgCl2, 30 °C
# T2 construct: recombinant from E. coli BL21 (DE3), Ni-NTA purified
# T2 sequence (Q9RM86 1-438): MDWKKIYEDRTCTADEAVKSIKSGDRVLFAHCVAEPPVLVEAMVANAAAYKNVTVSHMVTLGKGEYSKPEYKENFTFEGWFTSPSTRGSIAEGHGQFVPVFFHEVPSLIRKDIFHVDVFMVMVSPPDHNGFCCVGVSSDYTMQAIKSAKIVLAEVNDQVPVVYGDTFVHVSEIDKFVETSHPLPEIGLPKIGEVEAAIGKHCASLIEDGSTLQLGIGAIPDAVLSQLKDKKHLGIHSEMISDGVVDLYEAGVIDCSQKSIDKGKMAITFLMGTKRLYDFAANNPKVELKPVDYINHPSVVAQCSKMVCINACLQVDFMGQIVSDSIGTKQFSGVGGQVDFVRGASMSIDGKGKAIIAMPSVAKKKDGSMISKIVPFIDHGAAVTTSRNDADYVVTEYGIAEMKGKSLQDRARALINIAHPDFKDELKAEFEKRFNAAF
# Pct = biological target: T3, Pct (Cupriavidus necator, UniProt Q0K874); experiment: LC-MS CoA-transfer assay; details: 100 mM HEPES pH 7.5, 10 mM MgCl2, 30 °C
# T3 construct: recombinant from E. coli BL21 (DE3), Ni-NTA purified
# T3 sequence (Q0K874 1-542): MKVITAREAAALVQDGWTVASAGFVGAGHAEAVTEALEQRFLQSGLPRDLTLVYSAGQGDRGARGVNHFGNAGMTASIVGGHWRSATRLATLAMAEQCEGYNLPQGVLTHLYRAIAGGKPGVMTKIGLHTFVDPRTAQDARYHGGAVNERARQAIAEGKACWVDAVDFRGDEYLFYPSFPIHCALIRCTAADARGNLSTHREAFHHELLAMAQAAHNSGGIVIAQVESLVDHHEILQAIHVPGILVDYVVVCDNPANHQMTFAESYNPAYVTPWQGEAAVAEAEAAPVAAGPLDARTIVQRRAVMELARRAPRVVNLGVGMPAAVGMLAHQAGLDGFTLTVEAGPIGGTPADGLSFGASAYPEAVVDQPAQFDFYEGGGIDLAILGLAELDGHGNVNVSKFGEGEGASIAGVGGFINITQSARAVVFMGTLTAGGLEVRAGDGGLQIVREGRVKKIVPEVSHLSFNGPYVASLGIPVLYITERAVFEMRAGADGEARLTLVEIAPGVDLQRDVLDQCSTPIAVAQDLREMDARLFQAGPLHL
# [2] = CoA donor acetyl-CoA 100 µM, 1 mM acid
smiles,measurement,setting,value
CC(C)(O)C(=O)SCCNC(=O)CCNC(=O)[C@H](O)C(C)(C)COP(=O)(O)OP(=O)(O)OC[C@H]1O[C@@H](n2cnc3c(N)ncnc32)[C@H](O)[C@@H]1OP(=O)(O)O [2-hydroxyisobutyryl-CoA],"coupled PhaJ/Etr1p assay, NADPH at 340 nm",[1],we confirmed functionality of this purified enzyme with its native substrate 2-hydroxyisobutyryl-CoA
O=C(O)CCO [3-hydroxypropionate],LC-MS CoA-transfer assay,AbfT; [2],performed best with 3-HP as CoA-acceptor and acetyl-CoA as CoA-donor
same,LC-MS CoA-transfer assay,Pct; [2],performed best with 3-HP as CoA-acceptor and acetyl-CoA as CoA-donor
CC(=O)SCCNC(=O)CCNC(=O)[C@H](O)C(C)(C)COP(=O)(O)OP(=O)(O)OC[C@H]1O[C@@H](n2cnc3c(N)ncnc32)[C@H](O)[C@@H]1OP(=O)(O)O [acetyl-CoA],LC-MS CoA-transfer assay,AbfT; CoA acceptor 3-HP 1 mM,performed best with 3-HP as CoA-acceptor and acetyl-CoA as CoA-donor
same,LC-MS CoA-transfer assay,Pct; CoA acceptor 3-HP 1 mM,performed best with 3-HP as CoA-acceptor and acetyl-CoA as CoA-donor

# — article PMC11599936, “New-to-nature CO2-dependent acetyl-CoA assimilation enabled by an engineered B12-dependent acyl-CoA mutase” (Nature Communications, 2024)
